Experimental data as given in PubChem BioAssay AID248 (DTP/NCI, 2004).
“And” between values parts separate entries of the source, which are not always exact repeats. Equal values may be shown once. Toxic doses and inconclusive results are not listed. No stated cut-off is given here; in the data, active means T/C of 150% or more; inactive means T/C below 125%.

Tested on: L1210 leukemia ip in BDF1 mice, survival T/C
Assay: NCI In Vivo Anticancer Drug Screen. Data for tumor model L1210 Leukemia (intraperitoneal) in B6D2F1 (BDF1) mice
Details: endpoint: mean survival time, higher = longer survival
How it was run: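 Ratio derived from survival: compound-dosed mice over vehicle-dosed mice, all bearing a transplantable tumor.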

[1] = dose: 100.0 mg/kg/injection, schedule: Q04DX003 (ip), vehicle: saline with Tween-80
[2] = dose: 200.0 mg/kg/injection, schedule: Q04DX003 (ip), vehicle: saline with Tween-80
[3] = dose: 400.0 mg/kg/injection, schedule: Q04DX003 (ip), vehicle: saline with Tween-80
[4] = dose: 50.0 mg/kg/injection, schedule: Q01DX009 (ip), vehicle: saline with Tween-80
[5] = dose: 100.0 mg/kg/injection, schedule: Q04DX003 (ip), vehicle: saline
[6] = dose: 200.0 mg/kg/injection, schedule: Q04DX003 (ip), vehicle: saline
[7] = dose: 100.0 mg/kg/injection, schedule: Q04DX002 (ip), vehicle: Klucel (hydroxypropylcellulose) (HPC)
[8] = dose: 200.0 mg/kg/injection, schedule: Q04DX002 (ip), vehicle: Klucel (hydroxypropylcellulose) (HPC)
[9] = dose: 400.0 mg/kg/injection, schedule: Q04DX002 (ip), vehicle: Klucel (hydroxypropylcellulose) (HPC)
[10] = dose: 100.0 mg/kg/injection, schedule: Q01DX001 (ip), vehicle: saline
[11] = dose: 200.0 mg/kg/injection, schedule: Q01DX001 (ip), vehicle: saline
[12] = dose: 400.0 mg/kg/injection, schedule: Q01DX001 (ip), vehicle: saline
[13] = dose: 50.0 mg/kg/injection, schedule: Q01DX001 (ip), vehicle: carboxymethylcellulose (CMC)
[14] = dose: 100.0 mg/kg/injection, schedule: Q01DX001 (ip), vehicle: carboxymethylcellulose (CMC)
[15] = dose: 200.0 mg/kg/injection, schedule: Q01DX001 (ip), vehicle: carboxymethylcellulose (CMC)
[16] = dose: 400.0 mg/kg/injection, schedule: Q01DX001 (ip), vehicle: carboxymethylcellulose (CMC)
[17] = dose: 100.0 mg/kg/injection, schedule: Q04DX003 (ip), vehicle: Klucel (hydroxypropylcellulose) (HPC)
[18] = dose: 200.0 mg/kg/injection, schedule: Q04DX003 (ip), vehicle: Klucel (hydroxypropylcellulose) (HPC)
[19] = dose: 400.0 mg/kg/injection, schedule: Q04DX003 (ip), vehicle: Klucel (hydroxypropylcellulose) (HPC)
[20] = dose: 50.0 mg/kg/injection, schedule: Q01DX009 (ip), vehicle: Klucel (hydroxypropylcellulose) (HPC)
[21] = dose: 100.0 mg/kg/injection, schedule: Q01DX009 (ip), vehicle: Klucel (hydroxypropylcellulose) (HPC)
[22] = dose: 200.0 mg/kg/injection, schedule: Q01DX009 (ip), vehicle: Klucel (hydroxypropylcellulose) (HPC)

Measured: T/C

COc1ccc(-c2oc3cc4c(cc3c2-c2ccc(OC)cc2)CCCC4)cc1
inactive: [1] 98 % of control | [2] 98 % of control | [3] 102 % of control

Cc1c(Cl)cccc1NC(=O)N(C)Cc1ccccc1
inactive: [4] 109 % of control and 120 % of control | dose: 100.0 mg/kg/injection, schedule: Q04DX002 (ip), vehicle: saline with Tween-80 104 % of control and 110 % of control | [1] 97 % of control | dose: 200.0 mg/kg/injection, schedule: Q04DX002 (ip), vehicle: saline with Tween-80 100 % of control and 104 % of control | [2] 106 % of control | dose: 400.0 mg/kg/injection, schedule: Q04DX002 (ip), vehicle: saline with Tween-80 100 % of control and 103 % of control | [3] 101 % of control

CC[S+](CC)CC
inactive: [5] 95 % of control | [6] 95 % of control

O=S(=O)(Cc1ccccc1)C(Cl)Cl
inactive: dose: 75.0 mg/kg/injection, schedule: Q01DX001 (ip), vehicle: saline 96 % of control | dose: 150.0 mg/kg/injection, schedule: Q01DX001 (ip), vehicle: saline 94 % of control | dose: 300.0 mg/kg/injection, schedule: Q01DX001 (ip), vehicle: saline 96 % of control

CC(=O)NNC(N)=S
inactive: [7] 87 % of control | [8] 87 % of control | [9] 97 % of control

CCC1OC(=O)CC(O)C(C)C(OC2OC(C)CC(N(C)C)C2O)C(CC=O)CC(C)C(=O)/C=C/C2(C)OC2C1C (stereo not given)
inactive: dose: 75.0 mg/kg/injection, schedule: Q01DX009 (ip), vehicle: saline with Tween-80 93 % of control | dose: 150.0 mg/kg/injection, schedule: Q01DX009 (ip), vehicle: saline with Tween-80 102 % of control

Brc1ccc(/C(=N/Nc2ccccc2)Oc2ccccc2)cc1
inactive: [1] 94 % of control | [2] 94 % of control | [3] 102 % of control

Cc1ccc(C(=O)Cc2ccc(C#N)cc2)cc1
inactive: dose: 50.0 mg/kg/injection, schedule: Q01DX001 (ip), vehicle: saline 98 % of control | [10] 96 % of control | [11] 104 % of control | [12] 98 % of control

O=S(=O)(c1cc(Br)ccc1O)c1cc(Br)ccc1O
inactive: [10] 97 % of control | dose: 100.0 mg/kg/injection, schedule: Q04DX002 (ip), vehicle: gum acacia 93 % of control | [11] 95 % of control | dose: 200.0 mg/kg/injection, schedule: Q04DX002 (ip), vehicle: gum acacia 93 % of control | [12] 103 % of control | dose: 400.0 mg/kg/injection, schedule: Q04DX002 (ip), vehicle: gum acacia 93 % of control

COc1ccccc1NC(=O)N(Cc1ccccc1)C(C)(C)C
inactive: [7] 95 % of control | [8] 100 % of control | [9] 88 % of control

O=C1CC(C(F)(F)F)(C(F)(F)F)O1
inactive: dose: 100.0 mg/kg/injection, schedule: Q04DX002 (ip), vehicle: other 120 % of control | dose: 200.0 mg/kg/injection, schedule: Q04DX002 (ip), vehicle: other 102 % of control | dose: 400.0 mg/kg/injection, schedule: Q04DX002 (ip), vehicle: other 102 % of control

C=CCNC(=S)Nc1cccc([N+](=O)[O-])c1
inactive: [13] 111 % of control | [14] 94 % of control | [15] 94 % of control | [16] 100 % of control

CN(CCC#N)C1=CCCC1
inactive: dose: 100.0 mg/kg/injection, schedule: Q04DX003 (ip), vehicle: saline sonified 100 % of control | dose: 200.0 mg/kg/injection, schedule: Q04DX003 (ip), vehicle: saline sonified 111 % of control | dose: 400.0 mg/kg/injection, schedule: Q04DX003 (ip), vehicle: saline sonified 96 % of control

CCCCNC(=O)Nc1cc(C)ccc1Cl
inactive: [7] 115 % of control | [8] 97 % of control | [9] 105 % of control

COC(=O)C(Nc1ccc([N+](=O)[O-])cc1[N+](=O)[O-])C(C)OS(=O)(=O)c1ccc(C)cc1 (stereo not given)
inactive: [10] 95 % of control | [11] 93 % of control | [12] 92 % of control

Fc1c(F)c(F)c(P(c2ccccc2)c2ccccc2)c(F)c1F
inactive: [7] 95 % of control | [8] 95 % of control | [9] 111 % of control

CC(=O)OC12CCC(O1)C1C(=O)OC(=O)C12 (stereo not given)
inactive: [17] 101 % of control | [18] 97 % of control | [19] 97 % of control

O=[N+]([O-])c1ccc(N=N/C(Cc2ccccc2)=N\Nc2ccccc2)cc1
inactive: [20] 90 % of control | [21] 95 % of control | [17] 87 % of control | [22] 92 % of control | [18] 100 % of control | dose: 400.0 mg/kg/injection, schedule: Q01DX009 (ip), vehicle: Klucel (hydroxypropylcellulose) (HPC) 90 % of control | [19] 101 % of control

Cc1nc2c(c(=O)[nH]1)OCN(Cc1ccccc1)C2
inactive: [13] 96 % of control | [14] 98 % of control | [15] 98 % of control | [16] 98 % of control

Cc1nc(N2CCCCC2)[nH]c(=O)c1CN(C)N=O
inactive: [4] 94 % of control | dose: 100.0 mg/kg/injection, schedule: Q01DX009 (ip), vehicle: saline with Tween-80 94 % of control | dose: 200.0 mg/kg/injection, schedule: Q01DX009 (ip), vehicle: saline with Tween-80 102 % of control

CC1(c2ccccc2)NC(=O)N(CCC#N)C1=O (stereo not given)
inactive: dose: 100.0 mg/kg/injection, schedule: Q04DX003 (ip), vehicle: acetone 100 % of control | dose: 200.0 mg/kg/injection, schedule: Q04DX003 (ip), vehicle: acetone 90 % of control | dose: 400.0 mg/kg/injection, schedule: Q04DX003 (ip), vehicle: acetone 104 % of control

O=C(Nc1ccccc1C(F)(F)F)Nc1cccc2c(O)cccc12
inactive: [14] 93 % of control and 100 % of control | dose: 100.0 mg/kg/injection, schedule: Q01DX009 (ip), vehicle: carboxymethylcellulose (CMC) 100 % of control and 91 % of control | dose: 100.0 mg/kg/injection, schedule: Q04DX002 (ip), vehicle: carboxymethylcellulose (CMC) 86 % of control | dose: 100.0 mg/kg/injection, schedule: Q04DX003 (ip), vehicle: carboxymethylcellulose (CMC) 88 % of control and 91 % of control | [15] 93 % of control and 89 % of control | dose: 200.0 mg/kg/injection, schedule: Q01DX009 (ip), vehicle: carboxymethylcellulose (CMC) 100 % of control and 103 % of control | dose: 200.0 mg/kg/injection, schedule: Q04DX002 (ip), vehicle: carboxymethylcellulose (CMC) 96 % of control and 89 % of control | dose: 200.0 mg/kg/injection, schedule: Q04DX003 (ip), vehicle: carboxymethylcellulose (CMC) 97 % of control and 88 % of control | [16] 94 % of control and 90 % of control | dose: 400.0 mg/kg/injection, schedule: Q01DX009 (ip), vehicle: carboxymethylcellulose (CMC) 96 % of control and 91 % of control | dose: 400.0 mg/kg/injection, schedule: Q04DX002 (ip), vehicle: carboxymethylcellulose (CMC) 89 % of control and 90 % of control | dose: 400.0 mg/kg/injection, schedule: Q04DX003 (ip), vehicle: carboxymethylcellulose (CMC) 97 % of control and 88 % of control

COC(=O)/C=C/c1ccc(OC)cc1
inactive: [20] 103 % of control | [21] 102 % of control | [17] 96 % of control | [22] 103 % of control | [18] 100 % of control | [19] 88 % of control

CC(C)Sc1nn2nnnc2c2ccccc12
inactive: dose: 50.0 mg/kg/injection, schedule: Q04DX003 (ip), vehicle: saline 94 % of control | [5] 97 % of control | [6] 103 % of control

CCOC(=O)c1ccc(N)cc1C(=O)OCC
inactive: dose: 100.0 mg/kg/injection, schedule: Q01DX001 (ip), vehicle: Klucel (hydroxypropylcellulose) (HPC) 93 % of control | dose: 200.0 mg/kg/injection, schedule: Q01DX001 (ip), vehicle: Klucel (hydroxypropylcellulose) (HPC) 95 % of control | dose: 400.0 mg/kg/injection, schedule: Q01DX001 (ip), vehicle: Klucel (hydroxypropylcellulose) (HPC) 87 % of control

O=C(O)C1CCCN(C(=O)OCc2ccccc2)C1 (stereo not given)
inactive: [20] 97 % of control | [21] 100 % of control | [17] 90 % of control | [22] 97 % of control | [18] 90 % of control | [19] 97 % of control
